Test results as given in publication PMC12040169 (PLOS Biology, 2025).

Assay: in vitro
Settings: human, hela cells, % viability

CN(Cc1nccs1)C(=O)NC1CCN(Cc2cccc(O)c2)CC1 [CBK307657]
viability at 28.5 h, 10 µM: 96.7%

NC(=O)C1(N2CCCCC2)CCN(C(=O)CCCC(=O)O)CC1 [CBK286575]
viability at 28.5 h, 10 µM: 84.2%

OC1(Cn2ccc3ncccc32)CCN(Cc2cccs2)CC1 [CBK284783]
viability at 28.5 h, 10 µM: 88.3%

Cc1cccc(N(CC(=O)Nc2cccnc2)S(=O)(=O)c2ccc(Cl)cc2)c1 [CBK268676]
viability at 28.5 h, 10 µM: 85.3%

O=C(O)c1ccccc1SC1CC(=O)N(CCc2ccccc2)C1=O (stereo not shown) [CBK269321]
viability at 28.5 h, 10 µM: 93.6%

CC(Cc1cccs1)NC(=O)c1cc(C2CC2)on1 (stereo not shown) [CBK283244]
viability at 28.5 h, 10 µM: 107%

Cn1nc(-c2ccc(S(=O)(=O)Nc3ccc4cn[nH]c4c3)s2)cc1C(F)(F)F [CBK067156]
viability at 28.5 h, 10 µM: 92.8%

CC(=O)c1ccc(N(C)C)cc1 [CBK033830]
viability at 28.5 h, 10 µM: 106%

Cc1ccc(Cl)cc1N1CCNCC1 [CBK013402]
viability at 28.5 h, 10 µM (bulk resorufin, single well): 94.6%

COC(=O)[C@@H]1Cc2ncn(C(C)C)c2CN1C(=O)CC(C)(C)C [CBK288988]
viability at 28.5 h, 10 µM: 88.9%

Cc1nc(CN2CCC(Cc3ccccc3)CC2)cs1 [CBK126438]
viability at 28.5 h, 10 µM: 95.7%

O=S(=O)(NC[C@H]1C[C@@H]2CCN1C[C@@H]2CN1CCOCC1)c1ccccc1 [CBK288760]
viability at 28.5 h, 10 µM: 92.9%

COc1ccc(CNC2CCCc3ccccc32)c(OC)c1C (stereo not shown) [CBK025778G]
viability at 28.5 h, 10 µM: 77.6%

O=C(CSc1nnc(-c2cccnc2)n1-c1ccc(Br)cc1)Nc1ccc2c(c1)OCO2 [CBK266153]
viability at 28.5 h, 10 µM: 93.8%

CCCc1[nH]nc(O)c1CC1CC1 [CBK081129]
viability at 28.5 h, 10 µM: 110%

O=C(CC1CCCC1)N1CCC(c2cc(CCOc3cccc(C(F)(F)F)c3)[nH]n2)C1 (stereo not shown) [CBK286267]
viability at 28.5 h, 10 µM: 89.4%

O=C(O)CCc1nc(-c2ccc3[nH]ccc3c2)no1 [CBK287070]
viability at 28.5 h, 10 µM: 99.3%

NC(=O)c1ccccc1NC(=O)CCN1C(=O)c2cccc([N+](=O)[O-])c2C1=O [CBK263118]
viability at 28.5 h, 10 µM: 87.4%

CCOc1cc(/C=C2\SC(=N)NC2=O)ccc1OS(=O)(=O)c1ccc(NC(C)=O)cc1 [CBK265243]
viability at 28.5 h, 10 µM: 94%

Cn1c(=O)n(C)c2cc(S(=O)(=O)Nc3ccc(Cl)c(C(=O)O)c3)ccc21 [CBK299841]
viability at 28.5 h, 10 µM: 90.8%

CCOc1ccc(-c2ccnc(N3CCCC(C)(O)C3)n2)cc1C(=O)O (stereo not shown) [CBK307652]
viability at 28.5 h, 10 µM: 117%

Cc1ccc(Nc2nc(N)nc(CSCCO)n2)cc1 [CBK265962]
viability at 28.5 h, 10 µM: 97.1%

CS(=O)(=O)N(CC(=O)NCc1ccccn1)c1ccc2c(c1)OCO2 [CBK269385]
viability at 28.5 h, 10 µM: 87.2%

Cn1ncc(Cl)c1C1CCCCCN1S(=O)(=O)c1ccc2[nH]c(=O)[nH]c(=O)c2c1 (stereo not shown) [CBK286303]
viability at 28.5 h, 10 µM: 102%

O=C(O)CCN1C(=O)C(O)=C(C(=O)c2ccc(Cl)cc2)C1c1ccccc1[N+](=O)[O-] (stereo not shown) [CBK264553]
viability at 28.5 h, 10 µM: 98.8%

Cc1cc(O)c(C(=O)Nc2cccc(Cl)c2)c(=O)n1Cc1ccco1 [CBK291143]
viability at 28.5 h, 10 µM: 91.2%

C[C@@H](c1ccccc1)n1c(=O)[nH]c2ncc(-c3cccc4ccccc34)nc21 [CBK064710]
viability at 28.5 h, 10 µM: 97%

CCc1cccc2c(/C=C3/SC(=S)N(CC(=O)O)C3=O)c[nH]c12 [CBK264937]
viability at 28.5 h, 10 µM: 94%

CC(=O)O[B-]1(OC(C)=O)N(c2ccc(S(N)(=O)=O)cc2)N=C(c2ccccc2)N=[N+]1c1ccccc1 [CBK260879]
viability at 28.5 h, 10 µM: 87.1%

O=C1NCC2(CCCN(Cc3ccc(F)cc3)C2)Oc2ccccc21 (stereo not shown) [CBK284857]
viability at 28.5 h, 10 µM: 92.7%

CC1CCc2n[nH]c(C(=O)NCCCc3ccco3)c2C1 (stereo not shown) [CBK283153]
viability at 28.5 h, 10 µM: 88.6%

CN1C(=O)COc2ccccc2CCCC[C@@H]2[C@H]1CCCN2CC(N)=O [CBK292098]
viability at 28.5 h, 10 µM: 105%

COc1ccc(CCNC(=O)CN2CCCC2Cn2cccn2)cc1 (stereo not shown) [CBK306147]
viability at 28.5 h, 10 µM: 92.1%

Cc1c(C(=O)O)sc(S(=O)(=O)N2CCN(C(=O)CCc3cccs3)CC2)c1C(=O)O [CBK297135]
viability at 28.5 h, 10 µM: 105%

COc1ccc(-c2nc(NC(=O)c3cccc(S(C)(=O)=O)c3)cnc2-c2ccc(F)cc2)cc1 [CBK037110]
viability at 28.5 h, 10 µM: 100%

O=C(CN1CCOCC1)N1CCC(Cn2cncn2)(C2CCCCC2)CC1 [CBK136803]
viability at 28.5 h, 10 µM: 95.7%

Cc1ccc(CCC2CCN(C(=O)c3ccc(O)nc3)CC2)cc1 [CBK296724]
viability at 28.5 h, 10 µM: 94.4%

O=C1NC(=O)N(c2ccc(F)cc2)C(=O)/C1=C/c1ccccc1OCc1ccc([N+](=O)[O-])cc1 [CBK263846]
viability at 28.5 h, 10 µM (bulk resorufin, single well): 93.5%

COc1nccnc1N1CCN(CCCC#N)CC1 [CBK084225]
viability at 28.5 h, 10 µM: 86.9%

Cc1cc(N)n(-c2nc3c(cnn3-c3ccc(C)c(C)c3)c(=O)[nH]2)n1 [CBK287646]
viability at 28.5 h, 10 µM: 97.8%

CS(=O)(=O)c1ccc(-c2ccc3c(c2)COC2(CCN(C(=O)CC4CCCCC4)CC2)O3)cc1 [CBK160589]
viability at 28.5 h, 10 µM (bulk resorufin, single well): 96.7%

CNc1nc(Cn2ncc(N3CCCN(C)CC3)cc2=O)cs1 [CBK307446]
viability at 28.5 h, 10 µM: 92.8%

N#Cc1c(F)cccc1NCc1cccnc1 [CBK057053]
viability at 28.5 h, 10 µM: 116%

Cc1c(S(=O)(=O)NCCN(C)C)sc2ccc(C(C)C)cc12 [CBK170357]
viability at 28.5 h, 10 µM: 90.2%

O=C(O)/C=C/c1ccc(CNS(=O)(=O)c2ccccc2)o1 [CBK286549]
viability at 28.5 h, 10 µM: 86%

CC(C)c1ccc(NS(=O)(=O)c2cc3c(N4CCNCC4)nccc3s2)cc1 [CBK038104C]
viability at 28.5 h, 10 µM: 91.4%

CC1CCN(Cc2ccc(-c3nnn(CC(=O)NCc4ccc(NS(C)(=O)=O)cc4)n3)cc2)CC1 [CBK144588C]
viability at 28.5 h, 10 µM: 90.3%

Cc1[nH]c2c(C(=O)NCCCC3CCOC3)cccc2c1C (stereo not shown) [CBK282551]
viability at 28.5 h, 10 µM: 84.1%

COc1ccccc1/C=C/CN1CCNC(=O)C1CC(=O)O (stereo not shown) [CBK269845]
viability at 28.5 h, 10 µM: 100%

CC(C)(C)OC(=O)N1CCC[C@@H](C(=O)c2cccs2)C1 [CBK284310]
viability at 28.5 h, 10 µM: 82.1%

COc1cccc(CC(=O)Nc2ncccc2C)c1 [CBK304982]
viability at 28.5 h, 10 µM: 98.9%

Cc1ccc(-c2n[nH]c(=O)o2)cc1Br [CBK288443]
viability at 28.5 h, 10 µM: 85.9%

COc1cc([C@@]23CC[C@@H](NC(=O)Nc4cccc(C(F)(F)F)c4F)C[C@@H]2N(C)CC3)ccc1C#N [CBK078562]
viability at 28.5 h, 10 µM: 106%

O=C(c1ccc(-n2ccnc2)c(-n2cccc2)c1)N1CCCCCC1 [CBK284813]
viability at 28.5 h, 10 µM: 87.4%

CCCCCC(=O)N1CCc2cc(N3CC(CNC(C)=O)OC3=O)ccc21 (stereo not shown) [CBK007646]
viability at 28.5 h, 10 µM: 92.5%

Fc1ccc(-c2cnn(-c3ccc(OC(F)(F)F)cc3)n2)c(F)c1 [CBK112740]
viability at 28.5 h, 10 µM: 99.1%

O=C(O)CCC(=O)Nc1ccc2c(c1)Cc1ccccc1-2 [CBK286611]
viability at 28.5 h, 10 µM: 94.9%

CN1CCN(C(=O)CNS(=O)(=O)c2cc(Br)c(Cl)s2)CC1 [CBK034482]
viability at 28.5 h, 10 µM: 94%

CN(C)c1cccc(Nc2ccc(/C=C/c3ccccc3)cn2)c1 [CBK036984]
viability at 28.5 h, 10 µM: 98.7%

Cc1cc(C)n(C(=O)c2cccc(S(=O)(=O)N3CCCCCC3)c2)n1 [CBK266727]
viability at 28.5 h, 10 µM: 102%

O=C(CS(=O)(=O)c1ccccc1)Nc1cccc2nsnc12 [CBK267949]
viability at 28.5 h, 10 µM: 97.4%

c1coc(CNc2c(-c3cccs3)nc3cnccn23)c1 [CBK283540]
viability at 28.5 h, 10 µM: 93.2%

CC(C)c1ccc(NC(=O)CSc2n[nH]c(=O)n2-c2ccccc2)cc1 [CBK299826]
viability at 28.5 h, 10 µM: 89.3%

CC(C)(C)c1csc(NCc2c(O)ccc3ccccc23)n1 [CBK078381]
viability at 28.5 h, 10 µM: 92.9%

COc1ccccc1N1CCN(C(=O)Nc2cccnc2)CC1 [CBK155617]
viability at 28.5 h, 10 µM: 98.7%

CN(C)CCOC(=O)C1CCCCCN1C (stereo not shown) [CBK278175G]
viability at 28.5 h, 10 µM: 97.8%

Cc1cc(Br)c2c(c1)C(O)(N1CCCCC1C)C(=O)N2 (stereo not shown) [CBK265071]
viability at 28.5 h, 10 µM: 97.9%

CCN(CC)C(=O)CCNC(=O)c1ccc2c(c1)COC(C1CCN(C(=O)OC(C)(C)C)CC1)O2 (stereo not shown) [CBK173273]
viability at 28.5 h, 10 µM: 92.2%

Fc1ccc(OCCN2CCC3(C2)OCCc2c3[nH]c3ccccc23)cc1 (stereo not shown) [CBK061787]
viability at 28.5 h, 10 µM: 86.7%

CSc1ccccc1NC(=O)c1cc(Cl)sc1Cl [CBK057008]
viability at 28.5 h, 10 µM: 99.2%

CS(=O)(=O)N1CC2(CCN(Cc3ccc(Cl)c(Cl)c3)CC2)c2ccccc21 [CBK084043]
viability at 28.5 h, 10 µM: 102%

COc1ccc(Cn2nc(NC(C)=O)c3ccccc32)cc1 [CBK048200]
viability at 28.5 h, 10 µM: 109%

CC(NCC(=O)NC1(C#N)CCCCC1)C(C)n1cccn1 (stereo not shown) [CBK305129]
viability at 28.5 h, 10 µM: 91.4%

Cc1cc(C(F)F)n2nc(C(=O)Nc3cccc(S(=O)(=O)N4CCOCC4)c3)nc2n1 [CBK266198]
viability at 28.5 h, 10 µM: 101%

COCc1nc2n(n1)CC(NC1CCCc3sccc31)CC2 (stereo not shown) [CBK305116]
viability at 28.5 h, 10 µM: 90.1%

CCN1CC(C(=O)N2CCCC(COc3ccc(F)cc3)C2)CC1=O (stereo not shown) [CBK282028]
viability at 28.5 h, 10 µM: 85.3%

CCc1nc2ccc(C(=O)N(C)C(C)C)cn2c1N(C)CCN1CCOCC1 [CBK146436]
viability at 28.5 h, 10 µM: 95.2%

CCNC(=O)N1C(CC(=O)OCC)C(=O)NC2CCCCC21 (stereo not shown) [CBK268030]
viability at 28.5 h, 10 µM: 116%

CCc1nn(CC(=O)N2CCCC2)c(=O)c2cc3occc3n12 [CBK283748]
viability at 28.5 h, 10 µM: 93.3%
